Values after ≈ are worked out from the molar mass of the structure shown.
Legend:
[1] = molecular target: T1, PPARα (Homo sapiens, UniProt Q07869); format: cell-based; details: i.a. = inactive
T1 construct: expressed in transfected cells; host or cells: COS-7
Experimental: (§1) COS-7 cells (PPAR) were grown in DMEM high glucose, supplemented with 10% fetal calf serum (FCS), 1% sodium pyruvate (SP) and 1% penicillin/streptomycin (PS) at 37° C. and 5% CO2. Used plasmids for PPAR transactivation assay are shown under supporting informations.
(§2) The day before transfection, COS-7 cells were seeded in 96-well plates with a density of 30,000 cells per well. Transient transfection was carried out using Lipofectamine LTX reagent (Invitrogen, Carlsbad, Calif., USA) according to the manufacturer's protocol with pFR-Luc (Stratagene), pRL-SV40 (Promega) and the Ga14-fusion receptor plasmids (pFA-CMV-hPPAR-LBD) of the respective PPAR subtype. 5 h after transfection, medium was changed to DMEM without phenol red and 10% FCS, supplemented with 1% SP, 1% PS and 1% L-glutamine, now additionally containing 0.1% DMSO and the respective test compound or 0.1% DMSO alone as untreated control. Each concentration was tested in triplicate wells and each experiment was repeated independently at least three times. Following overnight incubation with the test compounds, cells were assayed for luciferase activity using Dual-Glo™ Luciferase Assay System (Promega) according to the manufacturer's protocol. Luminescence was measured with an Infinite m200 luminometer (Tecan Deutschland GmbH). Each concentration of the compounds was tested in triplicate wells. Normalization for transfection efficacy and cell growth was done by division of the firefly luciferase data by renilla luciferase data resulting in relative light units. Activation factors were obtained by dividing by DMSO control. […] All compounds were evaluated by comparison of the achieved maximum effect to that of the reference compound (pioglitazone for PPARγ, GW7647 for PPARa, and L165041 for PPARS each with 1 μM). Data are expressed as mean±SE; n≥3.
(§3) The Gal4-fusion receptor plasmids pFA-CMV-PPARa-LBD, pFA-CMV-PPARS-LBD and pFA-CMV-PPARγ-LBD containing the hinge region and ligand binding domain (LBD) for each of the PPAR subtypes, respectively, were constructed by integrating cDNA fragments obtained from PCR amplification of human monocytes into the SmaI/XbaI cleavage site of the pFA-CMV vector (Stratagene, La Jolla, Calif., USA) and have already been published. […] Frame and sequence of the fusion receptors were verified by sequencing. pFR-Luc (Stratagene) was used as reporter plasmid and pRL-SV40 (Promega) for normalization of transfection efficacy and cell growth.

[2] = molecular target: T2, recombinant human sEH (Homo sapiens, UniProt P34913); test: biochemical; details: for inhibition at 10 µM: read-out: sEH inhibition @10 μM (converted); for IC50: read-out: IC50 sEH (converted)
T2 sequence (P34913 1-555): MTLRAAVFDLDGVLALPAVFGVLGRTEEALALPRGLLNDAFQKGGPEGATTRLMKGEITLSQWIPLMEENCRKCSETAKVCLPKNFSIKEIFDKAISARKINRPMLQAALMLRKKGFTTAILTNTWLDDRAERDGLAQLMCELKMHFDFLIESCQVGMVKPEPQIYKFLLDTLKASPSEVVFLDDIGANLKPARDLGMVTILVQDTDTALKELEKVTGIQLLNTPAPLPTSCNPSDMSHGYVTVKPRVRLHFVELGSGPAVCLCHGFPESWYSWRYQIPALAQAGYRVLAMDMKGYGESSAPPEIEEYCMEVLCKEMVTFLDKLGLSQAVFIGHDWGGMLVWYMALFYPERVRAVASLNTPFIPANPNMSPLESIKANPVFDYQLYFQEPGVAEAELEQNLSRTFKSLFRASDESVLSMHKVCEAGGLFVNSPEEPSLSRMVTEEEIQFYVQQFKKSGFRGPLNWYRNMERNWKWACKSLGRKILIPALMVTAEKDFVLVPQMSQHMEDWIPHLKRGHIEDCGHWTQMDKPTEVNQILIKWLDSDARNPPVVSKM

[3] = Water solubility approximation; format: physicochemical; details: PBS with 0.01% Polysorbate 20, aqueous with cosolvent or surfactant or cyclodextrin, kinetic from dmso stock; PBS pH 7.4, 0.01% Polysorbate 20, 1% DMSO; precipitation at 650 nm; read-out: w.s. (water solubility)
Experimental: PBS at pH 7.4 with 0.01% Polysorbate 20 (Tween) was combined with 1% of a DMSO solution of the inquired compound in a 96-well transparent flat bottom microtiter plate. Precipitation of the compound was measured at 650 nm with a Tecan Infinite 200 (Tecan Group Ltd, Mannedorf, Switzerland).

[4] = molecular target: T3, PPARδ (Homo sapiens, UniProt Q03181); test: PPAR transactivation assay in COS-7 cells (Gal4-hPPAR-LBD, luciferase); format: cell-based; details: i.a. = inactive
T3 construct: expressed in transfected cells; host or cells: COS-7
Experimental: as §1, §2, §3

[5] = molecular target: T4, PPARγ (Homo sapiens, UniProt P37231); test: cell-based; format: cell-based
T4 construct: expressed in transfected cells; host or cells: COS-7
Experimental: as §1, §2, §3

T1 sequence (Q07869 239-466): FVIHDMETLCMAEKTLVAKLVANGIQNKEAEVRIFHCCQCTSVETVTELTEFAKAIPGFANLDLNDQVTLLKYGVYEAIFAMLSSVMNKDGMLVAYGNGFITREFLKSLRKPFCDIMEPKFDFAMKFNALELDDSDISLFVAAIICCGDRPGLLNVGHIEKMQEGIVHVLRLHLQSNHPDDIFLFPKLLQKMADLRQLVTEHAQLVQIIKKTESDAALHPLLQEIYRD
T3 sequence (Q03181 211-439): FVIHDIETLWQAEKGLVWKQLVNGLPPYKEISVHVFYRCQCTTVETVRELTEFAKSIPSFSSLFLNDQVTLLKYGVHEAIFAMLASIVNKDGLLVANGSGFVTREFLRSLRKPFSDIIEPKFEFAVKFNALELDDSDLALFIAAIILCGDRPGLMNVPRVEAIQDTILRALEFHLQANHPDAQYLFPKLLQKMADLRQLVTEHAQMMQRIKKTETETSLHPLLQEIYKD
T4 sequence (P37231 238-503): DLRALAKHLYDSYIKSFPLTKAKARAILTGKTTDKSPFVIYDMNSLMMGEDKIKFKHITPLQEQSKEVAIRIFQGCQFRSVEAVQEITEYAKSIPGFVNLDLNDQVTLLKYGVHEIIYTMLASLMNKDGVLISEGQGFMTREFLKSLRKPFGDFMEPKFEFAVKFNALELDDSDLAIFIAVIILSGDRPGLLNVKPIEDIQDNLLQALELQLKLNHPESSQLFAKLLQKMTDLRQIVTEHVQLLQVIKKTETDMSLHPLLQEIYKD

| Compound | EC50 PPARα [1] | inhibition at 10 µM [2] [%] | solubility [3] [µM] | EC50 PPARδ [4] | IC50 [2] [nM] | EC50 PPARγ ([5]; i.a. = inactive) | activation at 10 µM ([5]; COS-7, read-out: PPARγ activation @10 μM, at 10 μM, compared to pioglitazone 1 μM) [%] | sEH IC50 / inhibitory potency (unit not given) [2] |
| --- | --- | --- | --- | --- | --- | --- | --- | --- |
| CCC(Cc1ccc(C(=O)NCc2ccccc2Br)cc1)C(=O)O (stereo not shown) [Compound 5c, 2-Ethyl 3-[4-(N-((2-bromo)benzyl)benzamide)]propionic acid] | n.t. i.a. i.a. n.t. | 34 | 500 (≈ 195 µg/mL) | n.t. i.a. i.a. n.t. |  |  |  |  |
| CCOC(=O)C(CC)Cc1ccc(C(=O)NCc2ccccc2OC(F)(F)F)cc1 (stereo not shown) [Compound 6b, Ethyl 2-ethyl 3-[4-(N-((2-trifluoromethoxy)benzyl)benzamide)]propanoate] | n.t. i.a. i.a. n.t. |  | 100 (≈ 42.3 µg/mL) | n.t. i.a. i.a. n.t. |  |  |  |  |
| CCC(Cc1ccc(C(=O)NCc2ccccc2OC(F)(F)F)cc1)C(=O)O (stereo not shown) [Compound 6c, 2-Ethyl 3-[4-(N-((2-trifluoromethoxy)benzyl)benzamide)]propionic acid] | n.t. i.a. i.a. n.t. | 23 | 500 (≈ 198 µg/mL) | n.t. i.a. i.a. n.t. |  |  |  |  |
| CCOC(=O)C(CC)Cc1ccc(C(=O)NCc2ccc(OC)cc2)cc1 (stereo not shown) [Compound 10b, Ethyl 2-ethyl 3-[4-(N-((4-methoxy)benzyl)benzamide)]propanoate] | n.t. i.a. i.a. n.t. |  | 10 (≈ 3.69 µg/mL) | n.t. i.a. i.a. n.t. |  |  |  |  |
| CCC(Cc1ccc(C(=O)NCc2ccc(OC)cc2)cc1)C(=O)O (stereo not shown) [Compound 10c, 2-Ethyl 3-[4-(N-((4-methoxy)benzyl)benzamide)]propionic acid] | n.t. i.a. i.a. n.t. | 34 | 500 (≈ 171 µg/mL) | n.t. i.a. i.a. n.t. |  |  |  |  |
| CCOC(=O)C(CC)Cc1ccc(C(=O)NCc2ccc(Cl)cc2)cc1 (stereo not shown) [Compound 11b, Ethyl 2-ethyl 3-[4-(N-((4-chloro)benzyl)benzamide)]propanoate] | n.t. i.a. i.a. n.t. |  | 10 (≈ 3.74 µg/mL) | n.t. i.a. i.a. n.t. |  |  |  |  |
| CCC(Cc1ccc(C(=O)NCc2ccc(Cl)cc2)cc1)C(=O)O (stereo not shown) [Compound 11c, 2-Ethyl 3-[4-(N-((4-chloro)benzyl)benzamide)]propionic acid] | n.t. i.a. i.a. n.t. |  | 500 (≈ 173 µg/mL) | n.t. i.a. i.a. n.t. |  |  |  |  |
| CCOC(=O)/C=C/c1ccc(C(=O)NCc2ccccc2C(F)(F)F)cc1 [Compound 16a, Ethyl (E)-4-[N-((2-trifluoromethyl)benzyl)benzamide]-cinnamate] | i.a. |  | 2.5 (≈ 0.943 µg/mL) | i.a. | 130 ± 5 |  |  |  |
| CCOC(=O)CCc1ccc(C(=O)NCc2ccccc2C(F)(F)F)cc1 [Compound 16b, Ethyl 3-[4-(N-((2-trifluoromethyl)benzyl)benzamide)]propanoate] | i.a. |  | 5 (≈ 1.9 µg/mL) | i.a. | 110 ± 3 |  |  |  |
| O=C(O)CCc1ccc(C(=O)NCc2ccccc2C(F)(F)F)cc1 [Compound 16c, 3-[4-(N-((2-trifluoromethyl)benzyl)benzamide)]propionic acid] | i.a. |  | 500 (≈ 176 µg/mL) | i.a. | 9000 ± 1700 |  |  |  |
| O=C(O)/C=C/c1ccc(C(=O)NCc2ccccc2C(F)(F)F)cc1 [Compound 16d, (E)-4-[N-((2-Trifluoromethyl)benzyl)benzamide]-cinnamic acid] | i.a. |  | 10 (≈ 3.49 µg/mL) | i.a. | 800 ± 50 |  |  |  |
| CCOC(=O)C(C)Cc1ccc(C(=O)NCc2ccccc2C(F)(F)F)cc1 (stereo not shown) [Compound 17b, Ethyl 2-methyl 3-[4-(N-((2-trifluoromethyl)benzyl)benzamide)]propanoate] | i.a. |  | 10 (≈ 3.93 µg/mL) | i.a. | 250 ± 40 |  |  |  |
| CC(Cc1ccc(C(=O)NCc2ccccc2C(F)(F)F)cc1)C(=O)O (stereo not shown) [Compound 17c, 2-Methyl 3-[4-(N-((2-trifluoromethyl)benzyl)benzamide)]propionic acid] | i.a. |  | 500 (≈ 183 µg/mL) | i.a. | 8000 ± 1600 |  |  |  |
| CCCC(Cc1ccc(C(=O)NCc2ccccc2C(F)(F)F)cc1)C(=O)OCC (stereo not shown) [Compound 18b, Ethyl 2-propyl 3-[4-(N-((2-trifluoromethyl)benzyl)benzamide)]propanoate] | i.a. |  | 5 (≈ 2.11 µg/mL) | i.a. | 170 ± 40 |  |  |  |
| CCCC(Cc1ccc(C(=O)NCc2ccccc2C(F)(F)F)cc1)C(=O)O (stereo not shown) [Compound 18c, 2-Propyl 3-[4-(N-((2-trifluoromethyl)benzyl)benzamide)]propionic acid] | i.a. |  | 500 (≈ 197 µg/mL) | i.a. | 5000 ± 1300 |  |  |  |
| CCOC(=O)C(Cc1ccc(C(=O)NCc2ccccc2C(F)(F)F)cc1)c1ccccc1 (stereo not shown) [Compound 19b, Ethyl 2-phenyl 3-[4-(N-((2-trifluoromethyl)benzyl)benzamide)]propanoate] | i.a. |  | 5 (≈ 2.28 µg/mL) | i.a. | 120 ± 13 |  |  |  |
| O=C(NCc1ccccc1C(F)(F)F)c1ccc(CC(C(=O)O)c2ccccc2)cc1 (stereo not shown) [Compound 19c, 2-Phenyl 3-[4-(N-((2-trifluoromethyl)benzyl)benzamide)]propionic acid] | i.a. |  | 100 (≈ 42.7 µg/mL) | i.a. | 2500 ± 500 |  |  |  |
| CON(C)C(=O)/C=C/c1ccc(C(=O)NCc2ccccc2C(F)(F)F)cc1 [Compound 20] | i.a. |  |  | i.a. | 70 ± 20 | i.a. |  |  |
| CON(C)C(=O)C1CC1c1ccc(C(=O)NCc2ccccc2C(F)(F)F)cc1 (stereo not shown) [Compound 21, N-Methoxy-N-methyl 3-[4-(N-((2-trifluoromethyl)benzyl)benzamide)]cyclopropanecarboxamide] | i.a. |  |  | i.a. | 80 ± 4 |  | 30 | double-digit nanomolar range |
